From US20190314431A1, “Method of Discovery of Potential Bioactive Compounds in Herbals by Regrouping after Chromatography” (priority 2018, published 2019)

Tested on: mice initiated with morphine
Experiment: Anti-opioid addiction effectiveness test of grouped herbal compounds in mice
Type: in vivo
Method: Mice will be initiated with morphine at 1 mg/ml for 21 days.
The second test: use separate groups of compounds to test effectiveness in mice. The definition of effective.
1. Ten Mice in Each Group.

SMILES: CN1CC[C@]23c4c5ccc(O)c4O[C@H]2[C@@H](O)C=C[C@H]3[C@H]1C5 [Morphine]
- Effective (3rd test, regrouped compounds of groups 2 and 9): Yes
- Effective (second test, ten mice in each group, mice initiated with morphine at 1 mg/ml for 21 days): Yes
